{"source": "patent US7858349B2", "about": "“Anti-cancer compounds” (The Regents of the University of Colorado, priority 1999, dated 2010)", "data": [{"tested_on": "SCLC strain SHP-77", "test": "MTT assay for cell survival, SCLC SHP-77 in vitro", "assay_type": "cell-based, human", "settings": "ED50 for killing of SCLC strain SHP-77 in vitro, 4 days, 0 = no detectable activity, read-out: SCLC SHP-77 IC50", "units": {"IC50": "µM"}, "values": [{"smiles": "O=C(/C=C/c1c(F)c(F)c(F)c(F)c1F)N[C@@H](Cc1ccc(OCc2c(Cl)cccc2Cl)cc1)C(=O)N1CCN(C/C=C/c2ccccc2)CC1", "note": "[Analog M-1564, F5c-OC2Y-tCip]", "IC50": 4}, {"smiles": "CC1(C)CC(NC(=O)[C@H](Cc2ccc(OCc3c(Cl)cccc3Cl)cc2)NC(=O)c2ccc(N)nc2)CC(C)(C)N1", "note": "[Analog M-1596, 6Ani-OC2Y-Atmp]", "IC50": "> 60"}, {"smiles": "O=C(/C=C/c1c(F)c(F)c(F)c(F)c1F)N[C@@H](Cc1ccc(OCc2c(Cl)cccc2Cl)cc1)C(=O)N1CCCN(Cc2ccccc2)CC1", "note": "[Analog M-1606, F5c-OC2Y-Bhp]", "IC50": 17}, {"smiles": "CC(=O)Nc1nc(C)c(S(=O)(=O)N[C@@H](Cc2ccc(OCc3c(Cl)cccc3Cl)cc2)C(=O)NC2CC(C)(C)NC(C)(C)C2)s1", "note": "[Analog M-1628, Amts-OC2Y-Atmp]", "IC50": 45}, {"smiles": "O=C(/C=C/c1c(F)c(F)c(F)c(F)c1F)N[C@@H](Cc1ccc(OCc2c(Cl)cccc2Cl)cc1)C(=O)NCCCn1ccnc1", "note": "[Analog M-1642, F5c-OC2Y-Apia]", "IC50": 42}, {"smiles": "CC1(C)CC(NC(=O)C(Cc2ccc(OCc3c(Cl)cccc3Cl)cc2)NC(=O)C=Cc2ccccc2Cl)CC(C)(C)N1", "note": "(stereo not shown) [Analog M-1652, 2Ccn-OC2Y-Atmp]", "IC50": 4.1}, {"smiles": "O=C(N[C@@H](Cc1ccc(OCc2c(Cl)cccc2Cl)cc1)C(=O)N1CCN(C/C=C/c2ccccc2)CC1)C(=Cc1ccccc1)c1ccccc1", "note": "[Analog M-1654, Pcn-OC2Y-tCip]", "IC50": "> 60"}, {"smiles": "O=C(CCCC[C@@H]1SC[C@@H]2NC(=O)N[C@@H]21)N[C@@H](Cc1ccc(OCc2c(Cl)cccc2Cl)cc1)C(=O)N1CCN(C/C=C/c2ccccc2)CC1", "note": "[Analog M-1656, Biot-OC2Y-tCip]", "IC50": 5.5}, {"smiles": "CN1CCN(CCCNC(=O)[C@H](Cc2ccc(OCc3c(Cl)cccc3Cl)cc2)NC(=O)C(=Cc2ccccc2)c2ccccc2)CC1", "note": "[Analog M-1658, Pcn-OC2Y-Amp]", "IC50": 10}, {"smiles": "O=C(N[C@@H](Cc1ccc(OCc2c(Cl)cccc2Cl)cc1)C(=O)NC1CCN(Cc2ccccc2)CC1)C(=Cc1ccccc1)c1ccccc1", "note": "[Analog M-1660, Pcn-OC2Y-Abzp]", "IC50": 31}, {"smiles": "CC1CN(C(=O)C(Cc2ccc(OCc3c(Cl)cccc3Cl)cc2)NC(=O)C(=Cc2ccccc2)c2ccccc2)CC(C)N1Cc1ccccc1", "note": "(stereo not shown) [Analog M-1662, Pcn-OC2Y-cDmbp]", "IC50": 20}, {"smiles": "CC1CN(C(=O)C(Cc2ccc(OCc3c(Cl)cccc3Cl)cc2)NC(=O)C2CCn3c(C(=O)c4ccccc4)ccc32)CC(C)N1Cc1ccccc1", "note": "(stereo not shown) [Analog M-1664, Ktlc-OC2Y-cDmbp]", "IC50": "> 60"}, {"smiles": "O=C(c1ccccc1)c1ccc2n1CCC2C(=O)N[C@@H](Cc1ccc(OCc2c(Cl)cccc2Cl)cc1)C(=O)N1CCN(C/C=C/c2ccccc2)CC1", "note": "(stereo partly shown) [Analog M-1666, Ktlc-OC2Y-tCip]", "IC50": "> 60"}, {"smiles": "O=C(c1ccccc1)c1ccc2n1CCC2C(=O)N[C@@H](Cc1ccc(OCc2c(Cl)cccc2Cl)cc1)C(=O)NC1CCN(Cc2ccccc2)CC1", "note": "(stereo partly shown) [Analog M-1668, Ktlc-OC2Y-Abzp]", "IC50": 4.6}, {"smiles": "O=C(N[C@@H](Cc1ccc(OCc2c(Cl)cccc2Cl)cc1)C(=O)N1CCN(c2ncccn2)CC1)C(=Cc1ccccc1)c1ccccc1", "note": "[Analog M-1670, Pcn-OC2Y-Pmpz]", "IC50": 50}, {"smiles": "O=C(CC12CC3CC(CC(C3)C1)C2)N[C@@H](Cc1ccc(OCc2c(Cl)cccc2Cl)cc1)C(=O)N1CCN(c2ncccn2)CC1", "note": "[Analog M-1672, Aaa-OC2Y-Pmpz]", "IC50": "> 50"}, {"smiles": "CN1CCN(CCCNC(=O)[C@H](Cc2ccc(OCc3c(Cl)cccc3Cl)cc2)NC(=O)C2CCn3c(C(=O)c4ccccc4)ccc32)CC1", "note": "(stereo partly shown) [Analog M-1674, Ktlc-OC2Y-Amp]", "IC50": 3.2}, {"smiles": "CN1CCN(CCCNC(=O)[C@H](Cc2ccc(OCc3c(Cl)cccc3Cl)cc2)NC(=O)C23CC4CC(CC(C4)C2)C3)CC1", "note": "[Analog M-1676, Aca-OC2Y-Amp]", "IC50": 6.2}, {"smiles": "O=C(NC1CCN(Cc2ccccc2)CC1)[C@H](Cc1ccc(OCc2c(Cl)cccc2Cl)cc1)NC(=O)C12CC3CC(CC(C3)C1)C2", "note": "[Analog M-1678, Aca-OC2Y-Abzp]", "IC50": 7.8}, {"smiles": "O=C([C@H](Cc1ccc(OCc2c(Cl)cccc2Cl)cc1)NC(=O)C12CC3CC(CC(C3)C1)C2)N1CCN(c2ncccn2)CC1", "note": "[Analog M-1680, Aca-OC2Y-Pmpz]", "IC50": 33}, {"smiles": "CC1(C)CC(NC(=O)[C@@H](Cc2ccc(OCc3c(Cl)cccc3Cl)cc2)NC(=O)C(=Cc2ccccc2)c2ccccc2)CC(C)(C)N1", "note": "[Analog M-1682, Pcn-D-OC2Y-Atmp]", "IC50": 1.8}, {"smiles": "CC1(C)CC(NC(=O)C(NC(=O)C(=Cc2ccccc2)c2ccccc2)C2Cc3ccccc3C2)CC(C)(C)N1", "note": "(stereo not drawn) [Analog M-1684, Pcn-Igl-Atmp]", "IC50": 4.2}, {"smiles": "CC1(C)CC(NC(=O)C(NC(=O)C2CCn3c(C(=O)c4ccccc4)ccc32)C2Cc3ccccc3C2)CC(C)(C)N1", "note": "(stereo not shown) [Analog M-1686, Ktlc-Igl-Atmp]", "IC50": 14}, {"smiles": "COc1ccc2c(c1)c(CC(=O)NC(C(=O)NC1CC(C)(C)NC(C)(C)C1)C1Cc3ccccc3C1)c(C)n2C(=O)c1ccc(Cl)cc1", "note": "(stereo not shown) [Analog M-1688, Indo-Igl-Atmp]", "IC50": 4}, {"smiles": "O=C(C=Cc1c(F)c(F)c(F)c(F)c1F)NC(C(=O)N1CCN(Cc2c(F)c(F)c(F)c(F)c2F)CC1)C1Cc2ccccc2C1", "note": "(stereo not shown) [Analog M-1690, F5c-Igl-Pipz(F5b)]", "IC50": 25}, {"smiles": "CC1(C)CC(NC(=O)[C@H](Cc2ccc(OCc3c(Cl)cccc3Cl)cc2)NC(=O)C(Cl)Cl)CC(C)(C)N1", "note": "[Analog M-1692, Dcla-OC2Y-Atmp]", "IC50": 7.2}, {"smiles": "CN1CCN(CCCNC(=O)C(Cc2ccc(OCc3c(Cl)cccc3Cl)cc2)NC(=O)c2c3ccccc3nc3ccccc23)CC1", "note": "(stereo not shown) [Analog M-1700, Acrc-OC2Y-Amp]", "IC50": 7.3}, {"smiles": "CN1CCN(CCCNC(=O)C(Cc2ccc(OCc3c(Cl)cccc3Cl)cc2)NC(=O)c2ccc3c(c2)C(=O)c2ccccc2C3=O)CC1", "note": "(stereo not shown) [Analog M-1702, Aq2c-OC2Y-Amp]", "IC50": 3.6}, {"smiles": "CC1(C)CC(NC(=O)C(Cc2ccc(OCc3c(Cl)cccc3Cl)cc2)NC(=O)c2cccnc2)CC(C)(C)N1", "note": "(stereo not shown) [Analog M-1704, Pyrc-OC2Y-Atmp]", "IC50": 25}, {"smiles": "CC1(C)CC(NC(=O)C(Cc2ccc(OCc3c(Cl)cccc3Cl)cc2)NC(=O)c2cccc3ccccc23)CC(C)(C)N1", "note": "(stereo not shown) [Analog M-1706, 1Nap-OC2Y-Atmp]", "IC50": 4.2}, {"smiles": "CC1(C)CC(NC(=O)C(Cc2ccc(OCc3c(Cl)cccc3Cl)cc2)NC(=O)Cc2cccc3ccccc23)CC(C)(C)N1", "note": "(stereo not shown) [Analog M-1708, 1Nala-OC2Y-Atmp]", "IC50": 7.2}, {"smiles": "CC1(C)CC(NC(=O)C(Cc2ccc(OCc3c(Cl)cccc3Cl)cc2)NC(=O)Cc2ccc3ccccc3c2)CC(C)(C)N1", "note": "(stereo not shown) [Analog M-1710, 2Nala-OC2Y-Atmp]", "IC50": 1.7}, {"smiles": "CC1(C)CC(NC(=O)C(Cc2ccc(OCc3c(Cl)cccc3Cl)cc2)NC(=O)c2cccnc2Cl)CC(C)(C)N1", "note": "(stereo not shown) [Analog M-1714, 2Cln-OC2Y-Atmp]", "IC50": 4}, {"smiles": "Cc1nc2ccccc2c(C(=O)NC(Cc2ccc(OCc3c(Cl)cccc3Cl)cc2)C(=O)NC2CC(C)(C)NC(C)(C)C2)c1O", "note": "(stereo not shown) [Analog M-1716, Hmqc-OC2Y-Atmp]", "IC50": 7.2}, {"smiles": "C=CC(=O)NC(NC(=O)C=C)C(=O)NC(Cc1ccc(OCc2c(Cl)cccc2Cl)cc1)C(=O)NC1CC(C)(C)NC(C)(C)C1", "note": "(stereo not shown) [Analog M-1718, Baaa-OC2Y-Atmp]", "IC50": "> 60"}, {"smiles": "O=C(C=Cc1c(F)c(F)c(F)c(F)c1F)NC(Cc1c(F)c(F)c(F)c(F)c1F)C(=O)N1CCN(Cc2c(F)c(F)c(F)c(F)c2F)CC1", "note": "(stereo not shown) [Analog M-1730, F5c-F5F-Pipz(F5b)]", "IC50": 21}, {"smiles": "O=C(C=Cc1c(F)c(F)c(F)c(F)c1F)NC(Cc1ccc(OCc2c(Cl)cccc2Cl)cc1)C(=O)N1CCN(Cc2c(F)c(F)c(F)c(F)c2F)CC1", "note": "(stereo not shown) [Analog M-1732, F5c-OC2Y-Pipz(F5b)]", "IC50": 24}]}]}
